# From the supplement of paper PMC9663587
# Experiments:
# [1] = compound: CC(=O)c1c(C)c2cnc(Nc3ccc(N4CCNCC4)cn3)nc2n(C2CCCC2)c1=O; assay: increase in dead-cell fraction, 72 h; higher = more death;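 note: breast cancer cell lines in 384-well plates, stained with Hoechst plus LIVE/DEAD far red dye and imaged, cells above an LDR intensity threshold counted dead, Hoechst-negative corpses included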
# [2] = compound: CCN1CCN(Cc2ccc(Nc3ncc(F)c(-c4cc(F)c5nc(C)n(C(C)C)c5c4)n3)nc2)CC1; assay: as above
# LEE011/Ribociclib = compound: CN(C)C(=O)c1cc2cnc(Nc3ccc(N4CCNCC4)cn3)nc2n1C1CCCC1 [LEE011/Ribociclib]; assay: as above
# Flavopiridol = compound: CN1CC[C@H](c2c(O)cc(O)c3c(=O)cc(-c4ccccc4Cl)oc23)[C@H](O)C1 [Flavopiridol]; assay: as above
# BSJ-03-123 = compound: CC(=O)c1c(C)c2cnc(Nc3ccc(N4CCN(CCOCCOCCOCCNC(=O)COc5cccc6c5C(=O)N(C5CCC(=O)NC5=O)C6=O)CC4)cn3)nc2n(C2CCCC2)c1=O [BSJ-03-123]; assay: GR value, 72 h; higher = faster growth (1 = untreated, <0 = killing);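 note: breast cancer and non-malignant breast epithelial lines, nine half-log doses, viable cells counted by Hoechst and LIVE/DEAD dye imaging versus time-zero plates and DMSO controls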
# [3] = compound: CC(=O)c1c(C)c2cnc(Nc3ccc(N4CCNCC4)cn3)nc2n(C2CCCC2)c1=O; assay: as above
cell line,measurement,setting,value
SUM1315,increase in dead-cell fraction,[1]; 0.0003162 µM,-0.0007
same,increase in dead-cell fraction,[1]; 0.001 µM,-0.0011
same,increase in dead-cell fraction,[1]; 0.003162 µM,-0.0024
same,increase in dead-cell fraction,[1]; 0.01 µM,0.0003
same,increase in dead-cell fraction,[1]; 0.03162 µM,0.0166
same,increase in dead-cell fraction,[1]; 0.1 µM,0.0188
same,increase in dead-cell fraction,[1]; 0.3162 µM,0.0295
same,increase in dead-cell fraction,[1]; 1 µM,0.0213
same,increase in dead-cell fraction,[1]; 3.162 µM,0.0282
same,increase in dead-cell fraction,[2]; 0.001 µM,0.0105
same,increase in dead-cell fraction,[2]; 0.003162 µM,0.0024
same,increase in dead-cell fraction,[2]; 0.01 µM,-0.0018
same,increase in dead-cell fraction,[2]; 0.03162 µM,0.0186
same,increase in dead-cell fraction,[2]; 0.1 µM,0.0167
same,increase in dead-cell fraction,[2]; 0.3162 µM,0.025
same,increase in dead-cell fraction,[2]; 1 µM,0.0225
same,increase in dead-cell fraction,[2]; 3.162 µM,0.0197
same,increase in dead-cell fraction,[2]; 10 µM,0.132
same,increase in dead-cell fraction,LEE011/Ribociclib; 0.001 µM,0.0236
same,increase in dead-cell fraction,LEE011/Ribociclib; 0.003162 µM,0.0101
same,increase in dead-cell fraction,LEE011/Ribociclib; 0.01 µM,0.0448
same,increase in dead-cell fraction,LEE011/Ribociclib; 0.03162 µM,0.0191
same,increase in dead-cell fraction,LEE011/Ribociclib; 0.1 µM,0.054
same,increase in dead-cell fraction,LEE011/Ribociclib; 0.3162 µM,0.071
same,increase in dead-cell fraction,LEE011/Ribociclib; 1 µM,0.0703
same,increase in dead-cell fraction,LEE011/Ribociclib; 3.162 µM,0.0888
same,increase in dead-cell fraction,LEE011/Ribociclib; 10 µM,0.114
same,increase in dead-cell fraction,Flavopiridol; 0.0001 µM,0.0039
same,increase in dead-cell fraction,Flavopiridol; 0.0003162 µM,-0.0083
same,increase in dead-cell fraction,Flavopiridol; 0.001 µM,0.0048
same,increase in dead-cell fraction,Flavopiridol; 0.003162 µM,0.0087
same,increase in dead-cell fraction,Flavopiridol; 0.01 µM,0.0083
same,increase in dead-cell fraction,Flavopiridol; 0.03162 µM,0.0248
same,increase in dead-cell fraction,Flavopiridol; 0.1 µM,-0.0084
same,increase in dead-cell fraction,Flavopiridol; 0.3162 µM,0.383
same,increase in dead-cell fraction,Flavopiridol; 1 µM,0.596
same,GR value,BSJ-03-123; 0.001 µM,0.883 GR
same,GR value,BSJ-03-123; 0.003162 µM,0.736 GR
same,GR value,BSJ-03-123; 0.01 µM,0.79 GR
same,GR value,BSJ-03-123; 0.03162 µM,0.651 GR
same,GR value,BSJ-03-123; 0.1 µM,0.822 GR
same,GR value,BSJ-03-123; 0.3162 µM,0.641 GR
same,GR value,BSJ-03-123; 1 µM,0.497 GR
same,GR value,BSJ-03-123; 3.162 µM,0.572 GR
same,GR value,BSJ-03-123; 10 µM,0.21 GR
same,GR value,[3]; 0.0003162 µM,1.07 GR
same,GR value,[3]; 0.001 µM,0.996 GR
same,GR value,[3]; 0.003162 µM,0.938 GR
same,GR value,[3]; 0.01 µM,0.855 GR
same,GR value,[3]; 0.03162 µM,0.593 GR
same,GR value,[3]; 0.1 µM,0.522 GR
same,GR value,[3]; 0.3162 µM,0.365 GR
same,GR value,[3]; 1 µM,0.417 GR
same,GR value,[3]; 3.162 µM,0.293 GR
